Laboratory results from patent US7829754B2, “Method of cleaning heavy metals-containing soil” (Chubu Electric Power Co., Inc., priority 2004, dated 2010).
Where two headings read alike, the source gives them in different places.

What was measured:
Fagopyrum esculentum [1] = details: for Leaf dry weight / Stem dry weight / Stem lead concentration / Terrestrial dry weight / Terrestrial part lead accumulation amount / Terrestrial part lead concentration: soil B; for Leaf lead concentration: soil B (lead 13032 mg/kg), added one week before harvesting
Protocol: A lead concentration in a soil or a plant body was analyzed using ICP-AES (inductively coupled plasma-atomic emission spectrometry) regarding a sample obtained by adding nitric acid and degrading this with a microwave.
A cultivating experiment was conducted as follows: in which Fagopyrum esculentum and Brassica juncca were cultivated in a lead-containing soil filled in a Wagnel pot, a chelating agent was further added to the soil, and a difference in a lead accumulating amount depending on the cultivating condition was examined.
In addition, considering influence on plants and environment such as a salt concentration damage, 1, 5, 10 and 20 mmol kg^−1 soil of chemical reagents were adopted as an addition concentration, and 300 ml/pot (soil 3 kg) was provided as an addition amount.
1) Test plant: Fagopyrum esculentum, trade name (Milkyway), Brassica juncea
2) Test soil: Soil B (sampled from an old firing range site, soil lead concentration 13032 mg/kg), contrast sample (mountain sand in Gifu Prefecture of Japan, soil lead concentration 21 mg/kg)

Fagopyrum esculentum [2] = experiment: Fagopyrum esculentum growth situation after addition of chelating agent
Protocol: 3) The soil B (3 kg) and the contrast section soil (4.3 kg) which had been passed through a sieve (2 mm) were mixed with urea (N: 69 mg/kg soil), calcium superphosphate (P: 75 mg/kg soil), potassium chloride (K: 72 mg/kg soil), and magnesia lime (Mg: 67 mg/kg soil), and sufficiently stirred. 4) The test soil was filled into a Wagnel pot (1/5000a), and a plant was seeded (3 pits/pot, 3 grains/pit). 5) Four to five days after germination, the plant was thinned out to 3 individuals/pot. 6) Cultivation in a gross chamber (Environmental Condition) Temperature: 25° C.×12 h (8:00-20:00), 20° C.×12 h (20:00-8:00) Humidity: 60% Illumination: light condition (8:00-20:00), dark condition (20:00-8:00) Illuminance: 98001×, 180μ mmol˜m^−2·s^−1 7) Aspersion was performed at 100 ml/pot every day. 8) During a test term, a position of a pot was changed four times. 9) Individuals which were about to fall were induced by a support post. 10) One week before harvesting, a chelating agent at each concentration was added to the soil B. An addition amount was 300 ml/pot, and the chelating agent was carefully added to a surface of the soil so that the chelating agent was not contacted with the plant. On the day before addition of the chelating agent and on the day of addition, aspersion was not performed. […] 12) Repeated cycles in all sections were 3 (3 pots/test section).

[3] = type: physicochemical; details: chelating agent 100 mmol·dm^−3, pH 5.8; Soil A; shaken at 20° C. for 6 hours; FIG. 2
Protocol: <Experiment 1. Test of Comparing Lead Dissolving Out Ability of Chelating Agent>
In order to study a kind of a chelating agent to be added to a contaminated soil, the lead dissolving out abilities of 26 types of chelating agents (chelate reagents) were compared (FIG. 2).
2) Chelating agent: Each chelating agent of 100 mmol·dm^−3 and pH 5.8 was prepared.
3) Five grams of 1) the subject soil and 50 ml of 2) the chelating agent were put into to a 100 ml vessel, and shaken (200 times/min) at 20° C. for 6 hours. Repeated cycle was 3.
4) For comparison, a contrast section was prepared, in which desalted water was added instead of the chelating agent in the 3).
5) After shaking, the sample after filtration was centrifuged at 15000 rpm for 5 minutes, and the supernatant liquid was further centrifuged again under the same condition.
6) From the separated supernatant liquid, a lead concentration was measured with an inductively coupled high frequency plasma spectrometry (ICP) device.

[4] = chelating agent 10 mmol/kg soil
[5] = chelating agent 20 mmol/kg soil
[6] = four days after addition, 5 mmol/kg soil
[7] = four days after addition, 10 mmol/kg soil
[8] = four days after addition, 20 mmol/kg soil

In the case of “disodium ethylenediamine tetraacetate [EDTA · 2Na, reference compound]”, the “addition effect on lead concentration in stems” value (Fagopyrum esculentum [1]; 10, 20 mmol/kg soil, contrast section 2043 mg/kg) is reported as “high addition effect”, the “addition effect on lead concentration in leaves” value (Fagopyrum esculentum [1]; 10, 20 mmol/kg soil, contrast section 7971 mg/kg) is reported as “high addition effect” and the Leaf dry weight (Fagopyrum esculentum [1]; chelating agent 1 mmol/kg soil) is reported as 0.9799 g/plant. It also gave a Stem dry weight (Fagopyrum esculentum [1]; chelating agent 1 mmol/kg soil) of 1.7240 g/plant, a Stem lead concentration (Fagopyrum esculentum [1]; chelating agent 1 mmol/kg soil) of 1791 mg/kg and a Terrestrial dry weight (Fagopyrum esculentum [1]; chelating agent 1 mmol/kg soil) of 2.7039 g/plant. For the same substance, the “Terrestrial part lead accumulation amount” value (Fagopyrum esculentum [1]; chelating agent 1 mmol/kg soil) was 0.0106 g/plant, the “Terrestrial part lead concentration” value (Fagopyrum esculentum [1]; chelating agent 1 mmol/kg soil) was 3926 mg/kg and the Leaf lead concentration (Fagopyrum esculentum [1]; chelating agent 1 mmol/kg soil) was 7683 mg/kg. It also gave a Leaf dry weight (Fagopyrum esculentum [1]; chelating agent 5 mmol/kg soil) of 1.0307 g/plant, a Stem dry weight (Fagopyrum esculentum [1]; chelating agent 5 mmol/kg soil) of 2.0750 g/plant and a Stem lead concentration (Fagopyrum esculentum [1]; chelating agent 5 mmol/kg soil) of 2288 mg/kg. The Terrestrial dry weight (Fagopyrum esculentum [1]; chelating agent 5 mmol/kg soil) was 3.1057 g/plant, the “Terrestrial part lead accumulation amount” value (Fagopyrum esculentum [1]; chelating agent 5 mmol/kg soil) was 0.0157 g/plant and the “Terrestrial part lead concentration” value (Fagopyrum esculentum [1]; chelating agent 5 mmol/kg soil) was 5045 mg/kg. It also gave a Leaf lead concentration (Fagopyrum esculentum [1]; chelating agent 5 mmol/kg soil) of 10595 mg/kg, a Leaf dry weight (Fagopyrum esculentum [1]; [4]) of 0.9617 g/plant and a Stem dry weight (Fagopyrum esculentum [1]; [4]) of 1.8899 g/plant. The Stem lead concentration (Fagopyrum esculentum [1]; [4]) was 3376 mg/kg, the Terrestrial dry weight (Fagopyrum esculentum [1]; [4]) was 2.8516 g/plant and the “Terrestrial part lead accumulation amount” value (Fagopyrum esculentum [1]; [4]) was 0.0244 g/plant. The “Terrestrial part lead concentration” value (Fagopyrum esculentum [1]; [4]) was 8564 mg/kg, the Leaf lead concentration (Fagopyrum esculentum [1]; [4]) was 18758 mg/kg and the Leaf dry weight (Fagopyrum esculentum [1]; [5]) was 0.6389 g/plant. It also gave a Stem dry weight (Fagopyrum esculentum [1]; [5]) of 1.4969 g/plant, a Stem lead concentration (Fagopyrum esculentum [1]; [5]) of 8947 mg/kg and a Terrestrial dry weight (Fagopyrum esculentum [1]; [5]) of 2.1358 g/plant. The “Terrestrial part lead accumulation amount” value (Fagopyrum esculentum [1]; [5]) was 0.0328 g/plant, the “Terrestrial part lead concentration” value (Fagopyrum esculentum [1]; [5]) was 15335 mg/kg and the Leaf lead concentration (Fagopyrum esculentum [1]; [5]) was 30303 mg/kg. For the same substance, the “Terrestrial part lead accumulation amount” value (Fagopyrum esculentum [1]; per unit area, calculated, chelating agent 1 mmol/kg soil) was 1.59 g/m^2, the “Terrestrial part lead accumulation amount” value (Fagopyrum esculentum [1]; per unit area, calculated, chelating agent 5 mmol/kg soil) was 2.36 g/m^2 and the “Terrestrial part lead accumulation amount” value (Fagopyrum esculentum [1]; per unit area, calculated, chelating agent 10 mmol/kg soil) was 3.66 g/m^2. The “Terrestrial part lead accumulation amount” value (Fagopyrum esculentum [1]; per unit area, calculated, chelating agent 20 mmol/kg soil) was 4.92 g/m^2, the “Discoloration of leaf (number of individuals for which symptom was observed)” value (“Discoloration of leaf” for short) (Fagopyrum esculentum [2]; four days after addition, 1 mmol/kg soil) was 3 and the “Discoloration of leaf” value (Fagopyrum esculentum [2]; [6]) was 4. The “Leaf drop (number of individuals for which symptom was observed)” value (Fagopyrum esculentum [2]; [6]) was 1, the “Wilting of leaf (number of individuals for which symptom was observed)” value (“Wilting of leaf” below) (Fagopyrum esculentum [2]; [6]) was 1 and the “Discoloration of leaf” value (Fagopyrum esculentum [2]; [7]) was 6. For the same substance, the “Wilting of leaf” value (Fagopyrum esculentum [2]; [7]) was 2, the “Discoloration of flower (number of individuals for which symptom was observed)” value (Fagopyrum esculentum [2]; [8]) was 9 and the “Discoloration of leaf” value (Fagopyrum esculentum [2]; [8]) was 9. The “Leaf drop (number of individuals for which symptom was observed)” value (Fagopyrum esculentum [2]; [8]) was 2, the “Wilting of leaf” value (Fagopyrum esculentum [2]; [8]) was 9 and the “yellow leaves, spotting and discoloration of leaves, and discoloration of a flower” value (Fagopyrum esculentum [2]; [8]) was “confirmed in all individuals”. For the same substance, the discoloration of leaves (Fagopyrum esculentum [2]; two days after addition, 20 mmol/kg soil) was “discoloration of leaves was observed” and the “lead dissolving out ability” value [3] was “high lead dissolving out ability”.
